Like-named read-outs stand apart in the source and are kept apart here.
Experiments:
[1] = tested on: superoxide flashes in rat cardiac myocytes; test: Confocal imaging of superoxide flashes in cardiac myocytes expressing mt-cpYFP; format: cell-based; details: for occurrence of superoxide flashes: cardiac myocytes
Description: Similar conditions were used when expressing mt-cpYFP in other cell types. […] Briefly, cells were loaded with 4 μM rhod-2 AM (after NaBH4 quenching) at 4° C. for 1 hr, and then changed to normal culture medium for 4 hrs. […] Digital image processing was performed using IDL software (Research Systems) and customer-devised programs.

[2] = tested on: rat PC12 pheochromocytoma cells; format: cell-based; details: for occurrence of superoxide flashes: ρ− PC12 cells; for incidence of superoxide flashes: ethidium bromide 200 ng/ml for 60 days, PC12 cells
Excerpt: (§1) Enzymatically isolated rat ventricular myocytes and hippocampal neurons in primary culture were infected with adenovirus carrying the mt-cpYFP gene or its mutants at an m.o.i. of 1:100 and cultured for 2 to 3 days (Zhou et al., Am. J. Physiol. Heart Circ. Physiol., 279; H429-H436, 2000). Similar conditions were used when expressing mt-cpYFP in other cell types. To obtain spatially and temporally resolved fluorescent images of mt-cpYFP, a Zeiss LSM 510 confocal microscope equipped with a 63×, 1.3NA oil immersion objective and a sampling rate of 0.7 s/frame was used. Dual wavelength excitation imaging of mt-cpYFP was achieved by alternating excitation at 405 and 488 nm and collecting emission at >505 nm. Tri-wavelength excitation imaging of mt-cpYFP and TMRM (20 nM) or rhod-2 was achieved by tandem excitation at 405, 488, and 543 nm, and the emission was collected at 515-550, 515-550 and >560 nm, respectively. To increase mitochondrion retention of rhod-2, the indicator loading protocol described by Hajnoczky C et al. was used with modification (Hajnoczky et al., Cell, 82: 415-424, 2000). Briefly, cells were loaded with 4 μM rhod-2 AM (after NaBH4 quenching) at 4° C. for 1 hr, and then changed to normal culture medium for 4 hrs. The standard extracellular perfusion solution contained (in mM): NaCl 137, KCl 4.9, CaCl21, MgSO4 1.2, NaH2PO4 1.2, glucose 15, and HEPES 20 (pH 7.4). Digital image processing was performed using IDL software (Research Systems) and customer-devised programs.
(§2) ρ° 143B TK human osteosarcoma cells and its wild type control were a generous gift from Dr. Nadja C. de Souza-Pinto (National Institute on Aging, NIH). Wild type and ρ° 143B cells were cultured under identical conditions, in DMEM medium supplemented with 10% FBS, 100 μg/ml pyruvate, 100 μg/ml bromodeoxyuridine and 50 μg/ml uridine17. Mitochondria of ρ° 143B cells completely lack mitochondrial respiration, due to the loss of critical ETC proteins including constituents of complex I (ND1-6, ND4L), complex III (cytochrome b) and complex IV (COX I-III) encoded by mitochondrial DNA. To partially deplete mitochondrial DNA and allow partial disruption of mitochondrial respiration, PC12 pheochromocytoma cells were cultured in DMEM medium with 10% FBS, 200 ng/ml ethidium bromide, 100 μg/ml pyruvate and 50 μg/ml uridine for up to 60 days. Depletion of mitochondrial DNA was evidenced by western blot analysis of cytochrome C oxidase subunit I.

[3] = tested on: ρ° 143B TK-human osteosarcoma cells; test: Superoxide flashes in mitochondrial DNA-deleted ρ° 143B cells; format: cell-based; details: atractyloside 20 μM
Excerpt: as §1, with “Digital image processing was performed using IDL software (Research Systems) and customer-devised programs.” left out

[4] = tested on: superoxide flashes in cardiac myocytes; test: Superoxide flashes in cardiac myocytes during hypoxia and reoxygenation; format: cell-based, rat; details: diazoxide 30 μM added 20 min prior to hypoxia
Excerpt: as §1, with “Digital image processing was performed using IDL software (Research Systems) and customer-devised programs.” left out

[5] = tested on: cytochrome C oxidase subunit I (COX-1); test: Western blot of cytochrome C oxidase subunit I in ethidium bromide-treated PC12 cells; format: cell-based, rat; details: ethidium bromide 200 ng/ml for 60 days
Description: as §2

cellular ROS production = details: previous finding, Aon et al. 2003; cited from earlier work
[6] = Spectral analysis of purified cpYFP: in vitro redox calibration and response to ROS and metabolites; format: biochemical
Description: cpYFP cDNA (807 bp) was cloned into a prokaryotic expression vector (pRSET) and transferred into E. Coli cell line (BL21(DE3)LysS) for large-scale protein expression. In vitro redox calibration of cpYFP fluorescence was carried out using methods described previously (Hanson et al., J. Biol. Chem., 279: 13044-13053, 2004). Briefly, under an inert environment, purified cpYFP protein (1 μM) was incubated with either 10 mM reduced DTT or 1 mM aldrithiol for at least 3 hours, allowing for solution equilibration. Reduced DTT was removed from the solution allowing measurement of cpYFP response to various ROS and metabolites. The calibration solution contained (in mM): HEPES 75, KCl 125, and EDTA 1, pH=8.0. Emission and excitation spectra of reduced and oxidized cpYFP in the presence of designated reagents were obtained with a spectrofluorimeter (Model: CM1T101, HORIBA Jobin Yvon, Inc.) filled with nitrogen gas.
Using cpYFP purified from an E. coli expression system, excitation and emission fluorescence spectra were measured in response to reducing (10 mM reduced DTT) and oxidizing manipulations (1 mM aldrithiol). […] Extensive in vitro experiments were performed to determine the selectivity of cpYFP among physiologically relevant oxidants and metabolites. […] The cpYFP signal, however, was insensitive to hydrogen peroxide (H2O2) over a wide range of concentrations (0.1-10 mM) (FIG. 1c) and peroxynitrite (FIG. 2), and was decreased by hydroxyl radicals (.OH) (FIG. 1c) and nitric oxide (FIG. 2).

With `C=C(C)[C@H]1Cc2c(ccc3c2O[C@@H]2COc4cc(OC)c(OC)cc4[C@@H]2C3=O)O1` [Rotenone] the “occurrence of superoxide flashes” value ([1]; rotenone 5 μM) was “virtually abolished” and the “occurrence of superoxide flashes” value ([2]; rotenone 5 μM) was “virtually abolished”.
With `C=C1[C@@H]2CC[C@H]3[C@]4(C)C[C@H](O[C@@H]5O[C@H](CO)[C@@H](OS(=O)(=O)O)[C@H](OS(=O)(=O)O)[C@H]5OC(=O)CC(C)C)C[C@@H](C(=O)O)[C@H]4CC[C@]3(C2)[C@H]1O` [atractyloside] the “effect on superoxide flash frequency” value ([1]; atractyloside 20 μM) was “significantly augment superoxide flash frequency” and the “rescue of superoxide flashes in ρ° cells” value [3] was “cannot be rescued”.
In the case of `CO[C@H](C/C=C\C=C\CC/C=C/C[C@H](C)/C=C/C(=C\C(=O)O)CC(=O)O)/C(C)=C\C=C(/C)C(=O)O` [bongkrekic acid], the “effect on superoxide flash amplitude” value ([1]; bongkrekic acid 100 μM) is reported as “reducing their amplitude”, the “effect on superoxide flash kinetics” value ([1]; bongkrekic acid 100 μM) is reported as “abbreviating their kinetics” and the “incidence of superoxide flashes” value ([1]; bongkrekic acid 100 μM) is reported as 33 % of control.
For `CC1=NS(=O)(=O)c2cc(Cl)ccc2N1` [diazoxide], the “effect on rebound flurry of superoxide flash activity after reoxygenation” value [4] was “effectively protected the cells from the rebound flurry of superoxide flash activity”.
With `CC[n+]1c(-c2ccccc2)c2cc(N)ccc2c2ccc(N)cc21` [ethidium bromide] the “incidence of superoxide flashes” value [2] was 60 % of control, the “incidence of superoxide flashes” value ([2]; wild type 63±6) was 23±3 events per 1000 μm2 cell area per 100 s and the “cytochrome C oxidase subunit I (COX-1) expression” value [5] was 70 % of control.
With `O=S(=O)(O)c1cc(O)c(O)c(S(=O)(=O)O)c1` [tiron] the “effect on frequency and amplitude of flashes” value ([1]; tiron 1 mM) was “similarly diminished the frequency and amplitude of flashes”.
With “C160A/C182A: SEQ ID NO. 1 with both cysteines C160 and C182 substituted to alanine” the “response of the probe to superoxide after cysteine substitution” value ([1]; residue numbering of SEQ ID NO. 1) was “completely abolishes the response of the probe to superoxide”.
For MnTMPyP, the “inhibition of flash activity” value ([1]; MnTMPyP 50 μM) was 83% and the “flash amplitude (ΔF/F0)” value ([1]; MnTMPyP 50 μM, n=12, p<0.01 vs control) was 0.18±0.02.
For antimycin A, the “occurrence of superoxide flashes” value ([1]; antimycin A 5 μg/ml) is listed as “virtually abolished”, the “occurrence of superoxide flashes” value ([2]; antimycin A 5 μg/ml) is listed as “virtually abolished” and the “effect on cellular ROS production measured with DCF” value (cellular ROS production) is listed as “increases cellular ROS production”.
With “cpYFP: circularly permuted yellow fluorescent protein; superoxide probe of SEQ ID NO. 1, pericam without calmodulin and M13 domains” the “brightness of oxidized cpYFP versus fully reduced species” value ([6]; 1 mM aldrithiol vs 10 mM reduced DTT, excited at 488 nm) was “about five times brighter”, the “cpYFP signal response to other metabolites” value ([6]; ATP, ADP, NAD(P)+, NAD(P)H and Ca2+ at physiological concentrations) was “negligible or only marginal effects” and the “cpYFP signal response to hydroxyl radicals” value ([6]; Fenton reaction, 1 mM H2O2 plus 0.1 mM FeSO4, anaerobic) was “decreased”. The “cpYFP signal response to hydrogen peroxide” value ([6]; H2O2 0.1-10 mM) was “insensitive”, the “cpYFP signal response to peroxynitrite” value ([6]; SIN-1 1 mM in aerobic solution) was “insensitive” and the “cpYFP signal response to nitric oxide” value ([6]; SIN-1 1 mM in anaerobic solution) was “decreased”. For the same compound, the “cpYFP brightness dependence on pH” value ([6]; basic environments, e.g. mitochondrial matrix pH 8.0) was “brighter in basic environments” and the “increase of cpYFP fluorescence in response to O2.−” value ([6]; xanthine/xanthine oxidase (2 mM/20 mU), aerobic, compared to fully reduced state) was 420%.
